The text below walks through data of patent US20090069320A1, “Substituted 4-Amino-Quinazoline Compounds with Metabotropic Glutamate Receptor Regulating Activity and Uses Thereof” (Gruenenthal GmbH, priority 2006, published 2009).

This test deals with T1, mGluR5 receptor (Sus scrofa, UniProt I3LUI7).
T1 construct: 450 μg of protein from brain homogenate with 5 nM ^3[H]-MPEP; from tissue; host or cells: pig brain halves without medulla, cerebellum and pons
Briefly: [3H]-MPEP mGluR5 receptor binding assay (pig brain homogenate). The following applies: 10 μM compound, 5 nM [3H]-MPEP; for inhibition at 10 µM: read-out: % Inhibition of mGluR5 Receptor (pig) [^3H]-MPEP Bond at 10 μM. Put shortly:
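Compounds at 10 μM competed with 5 nM [3H]-MPEP for binding to pig brain membranes (450 μg protein) for 60 min at room temperature in pH 8.0 Hepes buffer. Bound radioactivity was collected on glass-fibre filters and read by β-counting, with 10 μM unlabelled MPEP giving non-specific binding.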

T1 sequence (I3LUI7 19-1212): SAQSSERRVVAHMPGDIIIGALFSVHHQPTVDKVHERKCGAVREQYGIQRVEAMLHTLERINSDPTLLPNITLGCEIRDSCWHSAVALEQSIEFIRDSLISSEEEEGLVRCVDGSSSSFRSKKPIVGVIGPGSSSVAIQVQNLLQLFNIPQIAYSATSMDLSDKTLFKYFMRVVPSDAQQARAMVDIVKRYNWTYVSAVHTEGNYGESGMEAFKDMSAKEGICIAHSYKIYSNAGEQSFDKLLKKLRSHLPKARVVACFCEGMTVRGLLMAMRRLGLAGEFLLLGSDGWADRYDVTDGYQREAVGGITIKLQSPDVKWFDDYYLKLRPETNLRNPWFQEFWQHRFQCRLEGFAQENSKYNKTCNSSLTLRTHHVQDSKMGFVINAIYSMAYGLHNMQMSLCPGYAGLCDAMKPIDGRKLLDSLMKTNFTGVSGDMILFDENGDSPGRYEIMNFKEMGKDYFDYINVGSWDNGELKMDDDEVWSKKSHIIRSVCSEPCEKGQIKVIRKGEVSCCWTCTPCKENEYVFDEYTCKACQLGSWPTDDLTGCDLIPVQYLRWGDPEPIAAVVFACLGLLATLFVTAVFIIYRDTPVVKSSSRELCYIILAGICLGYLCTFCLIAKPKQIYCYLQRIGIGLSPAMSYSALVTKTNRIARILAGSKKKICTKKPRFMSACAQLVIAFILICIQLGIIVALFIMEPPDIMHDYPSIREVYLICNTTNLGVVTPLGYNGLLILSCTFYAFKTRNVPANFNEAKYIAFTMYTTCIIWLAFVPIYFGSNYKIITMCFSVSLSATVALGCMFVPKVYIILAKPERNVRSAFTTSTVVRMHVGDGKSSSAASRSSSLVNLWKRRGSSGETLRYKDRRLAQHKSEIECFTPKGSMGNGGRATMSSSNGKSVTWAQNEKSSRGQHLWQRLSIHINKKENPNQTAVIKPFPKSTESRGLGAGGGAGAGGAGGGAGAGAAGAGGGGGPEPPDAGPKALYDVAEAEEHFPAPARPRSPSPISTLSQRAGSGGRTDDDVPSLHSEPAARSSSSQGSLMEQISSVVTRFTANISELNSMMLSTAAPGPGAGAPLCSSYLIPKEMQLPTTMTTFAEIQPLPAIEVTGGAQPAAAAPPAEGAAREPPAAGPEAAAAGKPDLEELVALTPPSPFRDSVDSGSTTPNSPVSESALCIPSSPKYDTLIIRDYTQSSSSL

For orientation: inhibition means the drop in the measured response relative to a control, in per cent. For the compound `COc1ccc(C(=O)N(Cc2cccc(-c3cc4c(NC5CC5)ncnc4cc3C)c2)C2CC2)cc1OC` [Example 722, N-cyclopropyl-N-(3-(4-(cyclopropylamino)-7-methylquinazolin-6-yl)benzyl)-3,4-dimethoxybenzamide], the inhibition at 10 µM came to 72%.

For `Cc1cc2ncnc(NC3CC3)c2cc1-c1cccc(CN(C(=O)CN(C)C)C2CC2)c1` [Example 723, N-cyclopropyl-N-(3-(4-(cyclopropylamino)-7-methylquinazolin-6-yl)benzyl)-2-(dimethylamino)acetamide], the inhibition at 10 µM was determined as 43%.

For the compound `CC(C)(C)C(=O)N(Cc1cccc(-c2cc(F)c3ncnc(NC4CC4)c3c2)c1)C1CC1` [Example 724, N-cyclopropyl-N-(3-(4-(cyclopropylamino)-8-fluoroquinazolin-6-yl)benzyl)pivalamide], the inhibition at 10 µM amounted to 86%.

With `Cc1cccc(CNc2ncnc3ccc(-c4cccc(CN(C(=O)CN(C)C)C5CC5)c4)cc23)c1` [Example 726, N-cyclopropyl-2-(dimethylamino)-N-(3-(4-(3-methylbenzylamino)quinazolin-6-yl)benzyl)acetamide], the inhibition at 10 µM worked out at 65%.

On to `O=C(c1cccc(F)c1)N(Cc1cccc(-c2cc(F)c3ncnc(NC4CC4)c3c2)c1)C1CC1` [Example 727, N-cyclopropyl-N-(3-(4-(cyclopropylamino)-8-fluoroquinazolin-6-yl)benzyl)-3-fluorobenzamide], for which the inhibition at 10 µM came out at 93%.

`O=C(c1cccc(C(F)(F)F)c1)N(Cc1cccc(-c2cc(F)c3ncnc(NC4CC4)c3c2)c1)C1CC1` [Example 728, N-cyclopropyl-N-(3-(4-(cyclopropylamino)-8-fluoroquinazolin-6-yl)benzyl)-3-(trifluoromethyl)benzamide]: the inhibition at 10 µM amounted to 63%.

On to `COc1ccc(CNc2ncnc3ccc(-c4cccc(CN(C(=O)c5cc(C)nn5C)C5CC5)c4)cc23)c(OC)c1` [Example 730, N-cyclopropyl-N-(3-(4-(2,4-dimethoxybenzylamino)quinazolin-6-yl)benzyl)-1,3-dimethyl-1H-pyrazole-5-carboxamide], for which the inhibition at 10 µM was determined as 35%.

Take `O=S(=O)(c1ccccc1)N(Cc1cc(-c2ccc3ncnc(NC4CC4)c3c2)ccn1)C1CC1` [Example 731, N-cyclopropyl-N-((4-(4-(cyclopropylamino)quinazolin-6-yl)pyridin-2-yl)methyl)benzole sulfonamide]: the “% Inhibition of mGluR5 Receptor (pig) [^3H]-MPEP Bond at 10 μM” value turned out to be 86%.

With `O=C(c1cccc(C(F)(F)F)c1)N(Cc1cc(-c2ccc3ncnc(NC4CC4)c3c2)ccc1Cl)C1CC1` [Example 732, N-(2-chloro-5-(4-(cyclopropylamino)quinazolin-6-yl)benzyl)-N-cyclopropyl-3-(trifluoromethyl)benzamide], the inhibition at 10 µM worked out at 63%.

On to `CN(C)CC(=O)N(Cc1cc(-c2ccc3ncnc(NC4CC4)c3c2)ccc1Cl)C1CC1` [Example 733, N-(2-chloro-5-(4-(cyclopropylamino)quinazolin-6-yl)benzyl)-N-cyclopropyl-2-(dimethylamino)acetamide], for which the inhibition at 10 µM amounted to 39%.

Turning to `O=S(=O)(c1cccs1)N(Cc1cc(-c2ccc3ncnc(NC4CC4)c3c2)ccc1Cl)C1CC1` [Example 734, N-(2-chloro-5-(4-(cyclopropylamino)quinazolin-6-yl)benzyl)-N-cyclopropylthiophene-2-sulfonamide], the inhibition at 10 µM was 91%.

On to `O=C(c1ccc(C(F)(F)F)cc1F)N(Cc1cc(-c2ccc3ncnc(NC4CC4)c3c2)ccn1)C1CC1` [Example 735, N-cyclopropyl-N-((4-(4-(cyclopropylamino)quinazolin-6-yl)pyridin-2-yl)methyl)-2-fluoro-4-(trifluoromethyl)benzamide], for which the inhibition at 10 µM is 72%.

On to `O=C(c1ccncc1)N(Cc1cccc(-c2cc(F)c3ncnc(NC4CC4)c3c2)c1)C1CC1` [Example 736, N-cyclopropyl-N-(3-(4-(cyclopropylamino)-8-fluoroquinazolin-6-yl)benzyl)isonicotinamide], for which the inhibition at 10 µM was 91%.

In the case of `Cc1cc2ncnc(NC3CC3)c2cc1-c1cccc(CN(C2CC2)S(=O)(=O)c2cccs2)c1` [Example 737, N-cyclopropyl-N-(3-(4-(cyclopropylamino)-7-methylquinazolin-6-yl)benzyl)thiophene-2-sulfonamide], the inhibition at 10 µM came out at 74%.

In the case of `O=C(c1ccc(C(F)(F)F)cc1F)N(Cc1cccc(-c2cc(F)c3ncnc(NC4CC4)c3c2)c1)C1CC1` [Example 738, N-cyclopropyl-N-(3-(4-(cyclopropylamino)-8-fluoroquinazolin-6-yl)benzyl)-2-fluoro-4-(trifluoromethyl)benzamide], the inhibition at 10 µM was 90%.

With `CN(C)CC(=O)N(Cc1cc(-c2ccc3ncnc(NC4CC4)c3c2)ccn1)C1CC1` [Example 739, N-cyclopropyl-N-((4-(4-(cyclopropylamino)quinazolin-6-yl)pyridin-2-yl)methyl)-2-(dimethylamino)acetamide], the inhibition at 10 µM worked out at 47%.

On to `O=C(c1ccccc1C(F)(F)F)N(Cc1cc(-c2ccc3ncnc(NC4CC4)c3c2)ccc1Cl)C1CC1` [Example 740, N-(2-chloro-5-(4-(cyclopropylamino)quinazolin-6-yl)benzyl)-N-cyclopropyl-2-(trifluoromethyl)benzamide], for which the inhibition at 10 µM was determined as 85%.

Take `O=C(C1CCCCC1)N(Cc1cc(-c2ccc3ncnc(NC4CC4)c3c2)ccc1Cl)C1CC1` [Example 741, N-(2-chloro-5-(4-(cyclopropylamino)quinazolin-6-yl)benzyl)-N-cyclopropylcyclohexane carboxamide]: the inhibition at 10 µM was found to be 37%.

For the compound `O=S(=O)(c1cccc2cccnc12)N(Cc1cc(-c2ccc3ncnc(NC4CC4)c3c2)ccc1Cl)C1CC1` [Example 742, N-(2-chloro-5-(4-(cyclopropylamino)quinazolin-6-yl)benzyl)-N-cyclopropylquinoline-8-sulfonamide], the inhibition at 10 µM is 69%.

As for `COCC(=O)N(Cc1cccc(-c2cc(F)c3ncnc(NC4CC4)c3c2)c1)C1CC1` [Example 744, N-cyclopropyl-N-(3-(4-(cyclopropylamino)-8-fluoroquinazolin-6-yl)benzyl)-2-methoxyacetamide], the inhibition at 10 µM turned out to be 90%.

With `Cc1cc2ncnc(NC3CC3)c2cc1-c1cccc(CN(C(=O)c2ccno2)C2CC2)c1` [Example 745, N-cyclopropyl-N-(3-(4-(cyclopropylamino)-7-methylquinazolin-6-yl)benzyl)isoxazole-5-carboxamide], the inhibition at 10 µM turned out to be 52%.

For `O=C(c1ccco1)N(Cc1cc(-c2ccc3ncnc(NC4CC4)c3c2)ccc1Cl)C1CC1` [Example 746, N-(2-chloro-5-(4-(cyclopropylamino)quinazolin-6-yl)benzyl)-N-cyclopropylfuran-2-carboxamide], the inhibition at 10 µM turned out to be 93%.

For the compound `O=C(c1cc(Cl)cc(Cl)c1)N(Cc1cc(-c2ccc3ncnc(NC4CC4)c3c2)ccc1Cl)C1CC1` [Example 747, 3,5-dichloro-N-(2-chloro-5-(4-(cyclopropylamino)quinazolin-6-yl)benzyl)-N-cyclopropylbenzamide], the inhibition at 10 µM amounted to 52%.

Regarding `O=C(Cc1ccccc1)N(Cc1cc(-c2ccc3ncnc(NC4CC4)c3c2)ccc1Cl)C1CC1` [Example 748, N-(2-chloro-5-(4-(cyclopropylamino)quinazolin-6-yl)benzyl)-N-cyclopropyl-2-phenylacetamide], the inhibition at 10 µM is 66%.
